The source of these data is patent US7767713B2, “Linoleic acid active agents for enhancing probability of becoming pregnant” (Palo Alto Investors, priority 2004, dated 2010).

The structures appear in SMILES notation.

Experiment [1] concerns female patients unable to achieve a successful pregnancy. As to the kind of experiment: Open-label oral treatment of infertility clinic patients. It counts as in vivo, human. The following applies: oral form, 100 mg-5 g/day for three months, patients unable to achieve pregnancy for at least six months. The method, then: Several patients from an active infertility clinic population are selected for open-label treatment with linoleic acid. All female patients have been unable to achieve a successful pregnancy for at least six months. Linoleic acid is formulated into a pharmaceutical oral form at a dosage of 100 mg-5 g/day for three months.

The subject of experiment [2] is uterine lining Th1/Th2 balance. As to the kind of experiment: Animal model, immune function of the uterine lining. Type of experiment: in vivo. The following applies: intravaginal injection, intrauterine injection or soaked vaginal sponge; versus sterile saline control animals. The method, then:
An animal model is used to determine the effects of linoleic acid on immune function of the uterine lining. Linoleic acid is delivered via several different methods—direct injection of the linoleic acid formulation into the vagina, direct injection of linoleic acid formulation into the uterus, linoleic acid soaked into a sponge and placed into the vagina. Control animals have sterile saline instilled in place of linoleic acid. The animals are then sacrificed, and the uterine lining is analyzed for changes in immunologic activity.

`CCCCC/C=C\C/C=C\CCCCCCCC(=O)O` [linoleic acid, Linoleic acid]: the Successful pregnancies result in experiment [1] is reported as “Successful pregnancies are seen in at least one patient”. Besides, in experiment [2], the “Changes in Th1/Th2 balance of uterine lining” value is “Changes in Th1/Th2 balance are seen”.
